The source of these data is patent US9573966B2, “Anti-cancer activity of novel bicyclic heterocycles” (Katholieke Universiteit Leuven, K.U.Leuven R&D, priority 2010, dated 2017).

One series has as its system HSB-2 cells. Kind of series: Inhibition of HSB-2 leukemic cell line proliferation (WST-1). It counts as cell-based, human. The conditions noted are these: Homo sapiens, HSB2, 48 h, cytotoxicity on HSB-2 cells, two days incubation, WST-1 read-out. In a few lines: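 HSB-2 human ALL cells, 50000/well in RPMI-1640 + 10% FCS, exposed to compounds 2 days at 37 °C, then WST-1 2 h, OD 450 nm. Proliferation scaled between untreated (max) and Triton X100 (min) controls; IC50 from ≥4-point curves, each point mean of ≥2 experiments.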

In another series the test system is LNCaP cells. Description: Inhibition of LNCaP prostate carcinoma cell line proliferation (WST-1). As to conditions: Homo sapiens, 48 h; cytotoxicity on LNCaP cells, two days incubation, WST-1 read-out. It counts as cell-based. The method, then:
LNCaP cell line, a prostate carcinoma cell line, was grown in RPMI-1640 medium (Lonza, Belgium) supplemented with 10% fetal calf serum (Hyclone, US) and antibiotics. Exponential growing phase cells were seed in flat bottom 96-well microplates (TTP, Switzerland) at 10000 cells per well in 200 μl of medium. The day after, 20 μl of compounds (in different concentrations) were added and incubated for two days at 37° C., 5% CO2. After incubation, 100 μl of supernatant were removed and 10 μl of WST-1 (Roche, Switzerland) were added. After 2 hour incubation at 37° C., 5% CO2, optical densities were measured at 450 nm. Proliferation is calculated with respect of control points (no compound and treatment with Triton X100 to have maximum and minimum proliferation data). The IC50 was determined from a graph with at least four points, each derived from the mean of at least 2 experiments. […] The results are shown in Table 3 for a number of compounds.

For the next series, the system named is hu EOL-1 leukemia. As to the method:
The test compound (Example 222) was dissolved in DMSO (5% final concentration) and further solubilised in 0.5% Tween 80 in 1% methylcellulose. The resulting suspension was warmed for 10 minutes to 37° C. in an ultrasound water bath to obtain a homogeneous formulation for oral administration. At day 0, 24 male NSG mice received a s.c. inoculum of 10^7 EOL-1 cells taken from in vitro culture and mixed with 50% matrigel. At day 10 tumours were palpable, mice were randomized into three treatment groups and therapy initiated. The test compound (Example 222) and the vehicle were administered orally (p.o.) once daily until the end of the experiment. Cyclophosphamide was administered only once intraperitoneally (i.p.).

The test system of another series is HL-60 cells. Kind of series: Inhibition of HL-60 leukemic cell line proliferation (WST-1). It counts as cell-based, human. As to conditions: Homo sapiens, 48 h; cytotoxicity on HL-60 cells, two days incubation, WST-1 read-out. In a few lines: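 HL-60 cells, 50000/well, exposed to compounds for two days at 37 °C, then 2 h WST-1 with OD at 450 nm. Proliferation scaled between untreated and Triton X100 controls; IC50 from at least four points, each a mean of ≥2 experiments.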

In the case of `Cc1ccc(NC(=O)N2CCN(c3nc(N)nc4sc(-c5cccnc5)nc34)CC2)cc1` [Example 222, 4-(5-amino-2-(pyridin-3-yl)thiazolo[5,4-d]pyrimidin-7-yl)-N-p-tolylpiperazine-1-carboxamide], the figures for the half-maximal inhibitory concentration (IC50) with HSB-2 cells, with LNCaP cells and in the series on HL-60 cells were 50 nM, 2870 nM and 50 nM, respectively. The “behavioural changes or deaths” value in the series with hu EOL-1 leukemia (EOL-1 xenograft in NSG mice, Example 222 p.o. once daily) is recorded as “did not lead to any behavioural changes or deaths”. Further, the antileukemic activity entry in the series on hu EOL-1 leukemia (EOL-1 xenograft model, conclusion) is on record as “significant antileukemic activity”. Besides, the body weight loss with hu EOL-1 leukemia (mouse, in vivo) is given as 11%. The tolerability result with hu EOL-1 leukemia (mouse, in vivo) was “well tolerated”. For the same molecule, the “effect on tumour growth (tumour volume) relative to vehicle” value in the series with hu EOL-1 leukemia (s.c. EOL-1 tumours in NSG mice, therapy from day 10 to day 21, Example 222 p.o. once daily, cyclophosphamide once i.p.) was “moderate but significant (p<0.05) delay of tumour growth”.

For `COc1ccc(OCC(=O)N2CCN(c3nc(N)nc4sc(-c5cccnc5)nc34)CC2)cc1` [Example 271, 1-(4-(5-amino-2-(pyridin-3-yl)thiazolo[5,4-d]pyrimidin-7-yl)piperazin-1-yl)-2-(4-methoxyphenoxy)ethanone], the half-inhibitory concentration (IC50) with HSB-2 cells is 60 nM; with LNCaP cells, more than 100000 nM; with HL-60 cells, 100 nM.

As to `Cc1cccc(OCC(=O)N2CCN(c3nc(N)nc4sc(-c5cccnc5)nc34)CC2)c1` [Example 275, 1-(4-(5-amino-2-(pyridin-3-yl)thiazolo[5,4-d]pyrimidin-7-yl)piperazin-1-yl)-2-(m-tolyloxy)ethanone], the 50% inhibitory concentration (IC50) was 70 nM in the series with HSB-2 cells, 1090 nM with LNCaP cells and 50 nM with HL-60 cells.

Turning to `Cc1cccc(NC(=O)N2CCN(c3nc(N)nc4sc(-c5cccnc5)nc34)CC2)c1` [Example 276, 4-(5-amino-2-(pyridin-3-yl)thiazolo[5,4-d]pyrimidin-7-yl)-N-m-tolylpiperazine-1-carboxamide], the figures for the IC50 in the series with HSB-2 cells, in the series on LNCaP cells and with HL-60 cells were 50 nM, 3050 nM and 60 nM, respectively.

Molecule `CCOc1nc(N)nc2sc(-c3ccc(F)cc3)cc12` [Example 363, 4-ethoxy-6-(4-fluorophenyl)thieno[2,3-d]pyrimidin-2-amine] yielded a melting point of 142 °C.

Turning to `Nc1nc(N2CCN(C(=O)Nc3ccccc3)CC2)c2nc(-c3cccnc3)sc2n1` [Example 440, 4-(5-amino-2-(pyridin-3-yl)thiazolo[5,4-d]pyrimidin-7-yl)-N-phenylpiperazine-1-carboxamide], the 50% inhibitory concentration (IC50) came to 58 nM in the series on HSB-2 cells, 17100 nM with LNCaP cells and 64 nM in the series with HL-60 cells.
